US4622327A, “2H-azeto[2,1-a]-isoquinoline derivatives and pharmaceutical compositions containing them” (Richter Gedeon Vegyeszeti Gyar R.T., priority 1983, dated 1986)

Tests used:
pentylenetetrazole spasm = assay: Metrazole spasm; format: in vivo; settings: mice, 30 mg/kg oral, pentylenetetrazole 125 mg/kg s.c., observation one hour
Protocol: (§1) For the pharmacological tests CFLP (LATI) mice of both sexes, weighing 18 to 22 g each and male Han. Wistar (LATI) rats weighing 160 to 180 g each were used. The test materials were administered orally, in 30 mg/kg doses, in the form of a suspension containing 5% of Tween 80, one hour before the tests.
2. Metrazole spasm (mice)
After pretreatment the animals were administered 125 mg/kg of pentylenetetrazole subcutaneously.
Observation time: one hour (Everett L. M. and Richards R. K.: J. Pharmacol. Exp. Ther. 81, 402/1944/).

[1] = system: acetic acid-induced writhing syndrome; assay: Analgesic activity (acetic acid writhing syndrome); format: in vivo, mice; settings: for Analgesic activity: 30 mg/kg oral, change in writhing frequency vs control
Protocol: as §1
4. Analgesic activity (mice)
One hour after pretreatment, mice were administered 0.4 ml of a 0.6% acetic acid solution intraperitoneally, as a pain stimulus. The frequency of writhing syndrome is registered for 30 minutes. The changes observed as a result of treatment with the test compounds is related to the mean value of the frequency of writhing syndrome in the control group, and the difference is expressed in percentage (Koster R. et al.: Exp. Ther. 72:74/1941/).

[2] = system: hyperthermia induced with Brewer's yeast; assay: Antipyretic activity (Brewer's yeast hyperthermia); format: in vivo, rats; settings: for ED50: Rattus norvegicus, po, read-out: Antipyretic activity, ED50
Protocol: as §1
5. Antipyretic activity (rats)
Hyperthermia is induced in rats with Brewer's yeast suspension (0.5% of Brewer's yeast, 1% of arabic gum in a volume of 0.3 ml, s.c.). The animals are treated with the test materials 4 hours later, and the tracheal temperature of the animals is registered with an ELAB thermometer (typ. TE-3) for 4 hours. The antipyretic activity is expressed in percentage of the animals which have an at least one centrigrade lower temperature than the average of the temperature of the control group treated with the solvent (Nimegeers C. J. E. et al.: Arzneimittel Forsch. 25:15/9/1975/).

tonic, extensoric spasm = assay: Maximum electroshock; format: in vivo; settings: mice, 30 mg/kg oral, one hour before test
Protocol: as §1
1. Maximum electroshock (mice)
The shock was applied through a corneal electrode (20 mA, 0.2 msec, HSE Schockgerat typ. 207).

SMILES | Antispasm activity, metrazole, b (tonic extensoric spasm) (pentylenetetrazole spasm) | decrease of the frequency of acetic acid-induced writhing syndrome ([1]; mice, 30 mg/kg) | Analgesic activity ([1]; mice) | ED50 [2] | antipyretic potency relative to Na-salicylate ([2]; rats) | Antispasm activity, max. electroshock (tonic, extensoric spasm) | Antipyretic activity ([2]; rats, 30 mg/kg oral, % of animals with at least one centigrade lower temperature than control) | analgesic effect in words ([1]; 30 mg/kg) | ED50 ([1]; Mus musculus, po, read-out: Analgesic activity, ED50)
COc1cc2c(cc1OC)C1C(CCl)CN1CC2.I (stereo not shown) [Compound A, 1-(chloromethyl)-7,8-dimethoxy-1,4,5,9b-tetrahydro-2H-azeto[2,1-a]isoquinoline hydroiodide] | 20.0 | about 30% | 30.0% | 75 mg/kg | one and a half-times more potent | – | – | – | –
CCOc1cc2c(cc1OCC)C1C(CCl)CN1CC2.Cl (stereo not shown) [Compound B, 1-(chloromethyl)-7,8-diethoxy-1,4,5,9b-tetrahydro-2H-azeto[2,1-a]isoquinoline hydrochloride] | 24.0 | – | 20.0% | – | – | 20.0 | 30.0% | – | –
O=C(O)c1ccccc1O [Na--salycilate, reference compound] | 20.0 | – | – | 110 mg/kg | – | – | – | ineffective | 113 mg/kg
